# Measured values published in US20210107953A1, “ACTIVE POLYPEPTIDE COMPOUND” (SHAANXI MICOT TECHNOLOGY LIMITED COMPANY, priority 2019, published 2021).
# Experiments:
# [1] = system: retinoic acid-induced osteoporosis rats; assay: CT detection of bone microstructure of thigh bone in retinoic acid-induced osteoporosis rats; type: in vivo, SD rats; conditions: RA-induced osteoporosis rats, 12 w
# Experimental: The data were represented by mean value±standard error. After the experiment was completed, thigh bone on the right side of rats were collected, and subjected to CT detection, and […] (BV/TV), the number of trabeculae (TbN) and trabeculae spacing (TbSp) were calculated, and the results were shown in Table 4. An example was selected from each of Control group, Model group, abaloptide group, 20 μg/kg dosage group of Example 1, 20 μg/kg dosage group of Example 2 and 20 μg/kg dosage group of Example 5, and the scanned figures by micron X-ray 3D imaging system of trochlea of their thigh bone were shown in FIG. 1.
# [2] = system: retinoic acid-induced osteoporosis rats; assay: Three-point mechanical test of thigh bone in retinoic acid-induced osteoporosis rats; type: in vivo, SD rats; conditions: 12 w; for Peak load of three-point mechanics (thigh bone): RA-induced osteoporosis rats
# Experimental: Experimental method: SD rats were administered by gavage to induce a rat osteoporosis model. After model establishment, the rats were randomly grouped according to bone mineral densities of thigh bone: (1) vehicle group (Control group): normal saline was subcutaneously administered in an equal volume to the test compound, and soybean oil was administered by gavage in an equal volume to retinoic acid; (2) Model group: normal saline of the same volume was subcutaneously administered; and administered with retinoic acid (RA) by gavage every other day to maintain osteoporosis state; (3) 20 μg dosage group of positive drug abaloptide (Aba-20): 10 μg/kg abaloptide was subcutaneously administered, and retinoic acid was administered by gavage every other day. Administration groups of three dosages were set for each test compound. −10 μg/kg dosage group of the test compound: 10 μg/kg test compound was subcutaneously administered, and retinoic acid was administered by gavage every other day. −20 μg/kg dosage group of the test compound: 20 μg/kg test compound was subcutaneously administered, and retinoic acid was administered by gavage every other day. −40 μg/kg dosage group of the test compound: 40 μg/kg test compound was subcutaneously administered, and retinoic acid was administered by gavage every other day. The administration was carried out 5 times a week, with normal saline as the diluent of test drug, and the administration successively lasted for 12 weeks. The induction dosage of retinoic acid was about 80 mg/kg and the maintenance dosage after model establishment was about 30 mg/Kg, and solvent of inducing agent was soybean oil. […] The thigh bone on the left was subjected to three-point bending test, and the thigh bone on the right was subjected to CT scan and was used to prepare a pathological section. Statistical analysis of data: the data were treated with SPSS 20 software. The data in line with normality test were subjected to one-way analysis of variance; and the data not in line with normality test were subjected to rank sum test. The data were represented by mean value±standard error.
# [3] = system: ovary removed SD rats (OVX induced rat osteoporosis model); assay: Bone mineral density (DXA) in ovariectomy-induced osteoporosis rats; type: in vivo; conditions: for 0 w Bone mineral density lumbar vertebra / 0 w Bone mineral density thigh bone: 0 w (before administration, baseline); for 25 w Bone mineral density lumbar vertebra / 25 w Bone mineral density thigh bone / 0-25 w percentage of change % lumbar vertebra (bone mineral density) / 0-25 w percentage of change % thigh bone (bone mineral density): 5 times a week; for 0-25 w percentage of change % lumbar vertebra (bone mineral density) / 0-25 w percentage of change % thigh bone (bone mineral density): 25 w vs before administration
# Excerpt: The animals had free access to water. […] 1) Bone mineral density (BMD) was detected with a dual-energy X-ray bone densitometry (DXA) before model establishment (−13 w), before administration (0 w), and 6 w, 12 w, 25 w, 37 w and 49 w after administration. […] The data were represented by mean value±standard error. Percentage of bone mineral density change=(bone mineral density at the detection time point−bone density before administration)/bone density before administration*100%
# [4] = 5 μg/kg subcutaneous, listed as abaloptide
substance,measurement,setting,value
Ala-Val-Ser-Glu-His-Gln-Leu-Leu-His-Asp-Lys-Gly-Lys-Ser-Ile-Gln-Asp-Leu-Arg-Arg-Arg-Glu-Leu-Leu-Glu-Lys-Leu-Leu-Ala-Lys-Leu-His-Thr-Ala-Tyr-Arg-Gly-Phe-Gly-Gly (AVSEHQLLHDKGKSIQDLRRRELLEKLLAKLHTAYRGFGG; The sequence is synthesized) [Example 3],"BV/TV (CT, thigh bone)",[1]; 10 μg/kg subcutaneous,0.33
same,"TbN, number of trabeculae (CT, thigh bone)",[1]; 10 μg/kg subcutaneous,4.17 mm^−1
same,"TbSp, trabeculae spacing (CT, thigh bone)",[1]; 10 μg/kg subcutaneous,0.20 mm
same,"BV/TV (CT, thigh bone)",[1]; 20 μg/kg subcutaneous,0.30
same,"TbN, number of trabeculae (CT, thigh bone)",[1]; 20 μg/kg subcutaneous,4.21 mm^−1
same,"TbSp, trabeculae spacing (CT, thigh bone)",[1]; 20 μg/kg subcutaneous,0.17 mm
same,"BV/TV (CT, thigh bone)",[1]; 40 μg/kg subcutaneous,0.39
same,"TbN, number of trabeculae (CT, thigh bone)",[1]; 40 μg/kg subcutaneous,4.22 mm^−1
same,"TbSp, trabeculae spacing (CT, thigh bone)",[1]; 40 μg/kg subcutaneous,0.15 mm
same,Peak load of three-point mechanics (thigh bone),[2]; 10 μg/kg subcutaneous,97.65 N
same,Peak load of three-point mechanics (thigh bone),[2]; 20 μg/kg subcutaneous,126.54 N
same,Peak load of three-point mechanics (thigh bone),[2]; 40 μg/kg subcutaneous,131.74 N
same,0 w Bone mineral density lumbar vertebra,[3]; 2.5 μg/kg group,0.24 ± 0 g/cm^2
same,0 w Bone mineral density thigh bone,[3]; 2.5 μg/kg group,0.23 ± 0 g/cm^2
same,25 w Bone mineral density lumbar vertebra,[3]; 2.5 μg/kg subcutaneous,0.27 ± 0 g/cm^2
same,25 w Bone mineral density thigh bone,[3]; 2.5 μg/kg subcutaneous,0.26 ± 0 g/cm^2
same,0-25 w percentage of change % lumbar vertebra (bone mineral density),[3]; 2.5 μg/kg subcutaneous,12.4 ± 2.2 %
same,0-25 w percentage of change % thigh bone (bone mineral density),[3]; 2.5 μg/kg subcutaneous,14.03 ± 1.81 %
same,0 w Bone mineral density lumbar vertebra,[3]; 5 μg/kg group,0.24 ± 0 g/cm^2
same,0 w Bone mineral density thigh bone,[3]; 5 μg/kg group,0.23 ± 0 g/cm^2
same,25 w Bone mineral density lumbar vertebra,[3]; 5 μg/kg subcutaneous,0.29 ± 0.01 g/cm^2
same,25 w Bone mineral density thigh bone,[3]; 5 μg/kg subcutaneous,0.29 ± 0.02 g/cm^2
same,0-25 w percentage of change % lumbar vertebra (bone mineral density),[3]; 5 μg/kg subcutaneous,20.41 ± 2.56 %
same,0-25 w percentage of change % thigh bone (bone mineral density),[3]; 5 μg/kg subcutaneous,27.19 ± 1.33 %
same,0 w Bone mineral density lumbar vertebra,[3]; 10 μg/kg group,0.24 ± 0.01 g/cm^2
same,0 w Bone mineral density thigh bone,[3]; 10 μg/kg group,0.23 ± 0 g/cm^2
same,25 w Bone mineral density lumbar vertebra,[3]; 10 μg/kg subcutaneous,0.29 ± 0.01 g/cm^2
same,25 w Bone mineral density thigh bone,[3]; 10 μg/kg subcutaneous,0.29 ± 0 g/cm^2
same,0-25 w percentage of change % lumbar vertebra (bone mineral density),[3]; 10 μg/kg subcutaneous,22.46 ± 2.25 %
same,0-25 w percentage of change % thigh bone (bone mineral density),[3]; 10 μg/kg subcutaneous,28.7 ± 1.6 %
abaloptide [reference compound],"BV/TV (CT, thigh bone)",[1]; 20 μg/kg subcutaneous,0.28
same,"TbN, number of trabeculae (CT, thigh bone)",[1]; 20 μg/kg subcutaneous,3.4 mm^−1
same,"TbSp, trabeculae spacing (CT, thigh bone)",[1]; 20 μg/kg subcutaneous,0.22 mm
same,peak load of thigh bone compared with Model group,[2]; 20 μg/kg dosage group,did not significantly increase
same,Peak load of three-point mechanics (thigh bone),[2]; 20 μg/kg subcutaneous,119.57 N
same,0 w Bone mineral density lumbar vertebra,[3]; 5 μg/kg group,0.24 ± 0 g/cm^2
same,0 w Bone mineral density thigh bone,[3]; 5 μg/kg group,0.23 ± 0 g/cm^2
same,25 w Bone mineral density lumbar vertebra,[3]; 5 μg/kg subcutaneous,0.3 ± 0 g/cm^2
same,25 w Bone mineral density thigh bone,[3]; 5 μg/kg subcutaneous,0.3 ± 0 g/cm^2
same,0-25 w percentage of change % lumbar vertebra (bone mineral density),[3]; 5 μg/kg subcutaneous,21.66 ± 2.12 %
same,0-25 w percentage of change % thigh bone (bone mineral density),[3]; 5 μg/kg subcutaneous,30.28 ± 2 %
same,0-25 w percentage of change % lumbar vertebra (bone mineral density),[3]; [4],21.66±2.12%
same,0-25 w percentage of change % thigh bone (bone mineral density),[3]; [4],30.28±2%
